# Test results: ChEMBL document CHEMBL1250454, “Oral oxytocin antagonists” (J Med Chem, 2010)
# Key:
# Vasopressin V1a receptor [1] = molecular target: T1, Vasopressin V1a receptor (Homo sapiens, UniProt P37288); test: Displacement of [3H]vasopressin from human vasopressin V1a receptor
# Target sequence in this assay (P37288 whole entry): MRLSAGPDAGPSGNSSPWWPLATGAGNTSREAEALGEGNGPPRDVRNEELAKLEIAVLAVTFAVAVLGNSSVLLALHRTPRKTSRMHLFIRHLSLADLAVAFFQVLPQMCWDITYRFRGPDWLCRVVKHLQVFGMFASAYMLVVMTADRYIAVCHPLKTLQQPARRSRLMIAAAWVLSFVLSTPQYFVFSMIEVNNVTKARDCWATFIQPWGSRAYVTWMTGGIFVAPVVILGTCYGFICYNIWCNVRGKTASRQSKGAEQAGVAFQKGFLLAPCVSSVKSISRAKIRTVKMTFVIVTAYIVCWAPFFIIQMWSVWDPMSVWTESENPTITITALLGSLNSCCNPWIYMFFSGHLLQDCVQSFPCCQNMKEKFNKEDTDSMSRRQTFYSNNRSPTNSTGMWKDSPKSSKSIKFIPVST
# Vasopressin V1b receptor [2] = molecular target: T2, Vasopressin V1b receptor (Homo sapiens, UniProt P47901); test: Displacement of [3H]vasopressin from human vasopressin V1b receptor
# T2 sequence (P47901 whole entry): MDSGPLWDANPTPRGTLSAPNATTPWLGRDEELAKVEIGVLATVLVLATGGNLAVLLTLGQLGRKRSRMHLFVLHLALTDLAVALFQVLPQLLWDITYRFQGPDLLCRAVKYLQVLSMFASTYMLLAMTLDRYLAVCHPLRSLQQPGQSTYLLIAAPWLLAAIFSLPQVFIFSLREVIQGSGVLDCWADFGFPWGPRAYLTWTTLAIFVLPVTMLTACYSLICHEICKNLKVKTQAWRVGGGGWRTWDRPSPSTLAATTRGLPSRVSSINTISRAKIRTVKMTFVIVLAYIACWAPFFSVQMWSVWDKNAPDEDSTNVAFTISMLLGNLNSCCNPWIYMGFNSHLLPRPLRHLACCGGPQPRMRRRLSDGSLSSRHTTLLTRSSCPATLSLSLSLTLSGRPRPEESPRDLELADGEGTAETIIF
# Vasopressin V2 receptor [3] = molecular target: T3, Vasopressin V2 receptor (Homo sapiens, UniProt P30518); test: Displacement of [3H]vasopressin from human vasopressin V2 receptor
# T3 sequence (P30518 whole entry): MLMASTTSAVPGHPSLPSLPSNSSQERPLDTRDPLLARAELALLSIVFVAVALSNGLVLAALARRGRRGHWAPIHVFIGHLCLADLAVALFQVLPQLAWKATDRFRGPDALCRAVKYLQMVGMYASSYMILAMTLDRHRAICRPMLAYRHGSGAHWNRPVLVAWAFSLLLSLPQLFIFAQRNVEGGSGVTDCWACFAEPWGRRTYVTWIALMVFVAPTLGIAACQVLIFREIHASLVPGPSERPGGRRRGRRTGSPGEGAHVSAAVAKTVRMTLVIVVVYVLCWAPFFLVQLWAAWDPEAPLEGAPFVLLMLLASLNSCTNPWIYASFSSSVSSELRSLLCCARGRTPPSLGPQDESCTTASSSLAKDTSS
# [4] = Oral bioavailability in rat; type: ADME, organism-based; conditions: in vivo
# Oxytocin receptor [5] = molecular target: T4, Oxytocin receptor (Homo sapiens, UniProt P30559); test: Displacement of [3H]-oxytocin from oxytocin receptor in human uterus tissue; type: tissue-based
# T4 sequence (P30559 whole entry): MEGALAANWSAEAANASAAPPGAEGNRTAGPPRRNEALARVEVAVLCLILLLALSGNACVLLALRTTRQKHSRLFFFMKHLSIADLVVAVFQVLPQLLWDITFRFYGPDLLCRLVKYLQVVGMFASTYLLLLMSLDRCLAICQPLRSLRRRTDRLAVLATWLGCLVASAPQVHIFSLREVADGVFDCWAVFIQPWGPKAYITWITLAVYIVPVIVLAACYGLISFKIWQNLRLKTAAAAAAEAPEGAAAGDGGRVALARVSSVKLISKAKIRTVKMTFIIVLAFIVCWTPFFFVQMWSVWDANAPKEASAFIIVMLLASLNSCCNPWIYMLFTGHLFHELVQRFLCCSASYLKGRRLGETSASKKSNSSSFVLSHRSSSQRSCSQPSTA
# Oxytocin receptor [6] = molecular target: T5, Oxytocin receptor (Rattus norvegicus, UniProt P70536); test: Displacement of [3H]-oxytocin from oxytocin receptor in rat uterus tissue; type: tissue-based
# T5 sequence (P70536 whole entry): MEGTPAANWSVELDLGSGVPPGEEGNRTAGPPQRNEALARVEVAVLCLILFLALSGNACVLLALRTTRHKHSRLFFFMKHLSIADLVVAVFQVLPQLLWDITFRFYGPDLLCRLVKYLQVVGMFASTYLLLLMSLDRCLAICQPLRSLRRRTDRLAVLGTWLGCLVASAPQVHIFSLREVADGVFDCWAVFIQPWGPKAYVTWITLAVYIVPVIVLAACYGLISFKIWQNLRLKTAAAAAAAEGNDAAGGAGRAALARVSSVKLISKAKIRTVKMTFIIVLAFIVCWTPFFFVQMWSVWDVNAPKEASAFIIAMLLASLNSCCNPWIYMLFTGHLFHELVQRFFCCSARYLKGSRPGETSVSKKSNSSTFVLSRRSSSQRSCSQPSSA
# Vasopressin V1a receptor [7] = molecular target: T1, Vasopressin V1a receptor; test: Displacement of [3H]vasopressin from vasopressin V1a receptor in human liver tissue
# Target sequence in this assay (P37288 whole entry): as the sequence (P37288 whole entry) above
# Vasopressin V1a receptor [8] = molecular target: T6, Vasopressin V1a receptor (Rattus norvegicus, UniProt P30560); test: Displacement of [3H]vasopressin from vasopressin V1a receptor in rat liver tissue
# T6 sequence (P30560 whole entry): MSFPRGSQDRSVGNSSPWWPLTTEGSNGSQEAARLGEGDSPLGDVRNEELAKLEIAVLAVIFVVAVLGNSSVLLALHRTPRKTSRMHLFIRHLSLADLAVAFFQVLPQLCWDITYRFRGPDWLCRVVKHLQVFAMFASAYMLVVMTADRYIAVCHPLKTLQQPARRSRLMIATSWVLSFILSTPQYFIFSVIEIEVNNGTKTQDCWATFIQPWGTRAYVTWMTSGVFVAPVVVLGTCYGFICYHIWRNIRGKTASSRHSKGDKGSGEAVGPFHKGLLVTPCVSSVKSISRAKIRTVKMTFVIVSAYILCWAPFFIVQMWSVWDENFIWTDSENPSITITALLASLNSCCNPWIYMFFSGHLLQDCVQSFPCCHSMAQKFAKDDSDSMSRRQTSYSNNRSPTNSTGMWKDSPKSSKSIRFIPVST
# Vasopressin V2 receptor [9] = molecular target: T3, Vasopressin V2 receptor; test: Displacement of [3H]vasopressin from vasopressin V2 receptor in human kidney tissue
# Vasopressin V2 receptor [10] = molecular target: T7, Vasopressin V2 receptor (Rattus norvegicus, UniProt Q00788); test: Displacement of [3H]vasopressin from vasopressin V2 receptor in rat kidney tissue
# T7 sequence (Q00788 whole entry): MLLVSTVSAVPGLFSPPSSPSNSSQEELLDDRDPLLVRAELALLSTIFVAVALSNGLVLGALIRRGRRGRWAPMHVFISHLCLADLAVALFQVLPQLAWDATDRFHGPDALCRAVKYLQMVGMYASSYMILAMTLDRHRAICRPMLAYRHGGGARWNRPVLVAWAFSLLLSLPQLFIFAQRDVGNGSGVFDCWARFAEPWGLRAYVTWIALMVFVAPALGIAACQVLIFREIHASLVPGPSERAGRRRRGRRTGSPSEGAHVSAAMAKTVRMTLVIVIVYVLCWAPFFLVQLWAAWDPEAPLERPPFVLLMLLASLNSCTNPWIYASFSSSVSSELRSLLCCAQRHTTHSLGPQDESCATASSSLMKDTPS
# Rattus norvegicus [11] = test: Inhibition of oxytocin-induced uterine contraction in iv dosed rat; type: functional
# Rattus norvegicus [12] = test: Inhibition of oxytocin-induced uterine contraction in intraduodenally dosed rat; type: functional
# Homo sapiens [13] = organism: Homo sapiens; test: Selectivity ratio of Ki for human oxytocin receptor Ki for human vasopressin V1a receptor
# Homo sapiens [14] = organism: Homo sapiens; test: Selectivity ratio of Ki for human oxytocin receptor Ki for human vasopressin V2 receptor
# [15] = Oral bioavailability in chimpanzee; type: ADME, organism-based, Pan troglodytes; conditions: in vivo
# [16] = Oral bioavailability in rhesus monkey; type: ADME, organism-based, Macaca mulatta; conditions: in vivo
# [17] = Aqueous solubility of the compound at pH 5; type: physicochemical
# [18] = Half life in rhesus monkey; type: ADME, organism-based, Macaca mulatta; conditions: in vivo
# Rattus norvegicus [19] = test: Inhibition of oxytocin-induced uterine contraction in iv dosed non-pregnant anaesthetized rat; type: functional
# Vasopressin V1b receptor [20] = molecular target: T2, Vasopressin V1b receptor; test: Displacement of [3H]vasopressin from human vasopressin V1b receptor expressed in CHO cells; type: cell-based
# Oxytocin receptor [21] = molecular target: T5, Oxytocin receptor; test: Displacement of [3H]-oxytocin from rat oxytocin receptor expressed in HEK293-EBNA cells; type: cell-based
# Vasopressin V1a receptor [22] = molecular target: T1, Vasopressin V1a receptor; test: Displacement of [3H]vasopressin from human vasopressin V1a receptor expressed in CHO cells at 10 uM
# Target sequence in this assay (P37288 whole entry, looked up): as the sequence (P37288 whole entry) above
# Oxytocin receptor [23] = molecular target: T4, Oxytocin receptor; test: Displacement of [3H]-oxytocin from human oxytocin receptor expressed in CHO cells; type: cell-based
# Vasopressin V1a receptor [24] = molecular target: T1, Vasopressin V1a receptor; test: Displacement of [3H]vasopressin from human vasopressin V1a receptor expressed in CHO cells; type: cell-based
# Target sequence in this assay (P37288 whole entry): as above
# Oxytocin receptor [25] = molecular target: T5, Oxytocin receptor; test: Displacement of [3H]-oxytocin from rat oxytocin receptor expressed in CHO cells; type: cell-based
# Vasopressin V2 receptor [26] = molecular target: T3, Vasopressin V2 receptor; test: Displacement of [3H]vasopressin from human vasopressin V2 receptor expressed in CHO cells; type: cell-based
# Oxytocin receptor [27] = molecular target: T5, Oxytocin receptor; test: Antagonist activity at oxytocin receptor in rat uterine strips assessed as inhibition of oxytocin-induced contraction; type: functional; conditions: read-out: pA2 (converted)
# Vasopressin V1a receptor [28] = molecular target: T6, Vasopressin V1a receptor; test: Displacement of [3H]vasopressin from rat vasopressin V1a receptor in liver tissue
# Vasopressin V2 receptor [29] = molecular target: T7, Vasopressin V2 receptor; test: Displacement of [3H]vasopressin from rat vasopressin V2 receptor in kidney tissue
# Vasopressin V1a receptor [30] = molecular target: T1, Vasopressin V1a receptor; test: Displacement of [3H]vasopressin from human vasopressin V1a receptor expressed in CHO cells at 10 uM; type: cell-based
# Target sequence in this assay (P37288 whole entry): as above
# Oxytocin receptor [31] = molecular target: T4, Oxytocin receptor; test: Displacement of [3H]-oxytocin from human oxytocin receptor expressed in HEK293-EBNA cells; type: cell-based
# Rattus norvegicus [32] = test: Inhibition of oxytocin-induced uterine contraction in po dosed rat; type: functional
# [33] = Protein binding in human serum; type: ADME, cell-free; conditions: read-out: PB (converted)
# Rattus norvegicus [34] = test: Inhibition of oxytocin-induced uterine contraction in non-pregnant rat at 30 mg/kg, po; type: functional
# Rattus norvegicus [35] = test: Inhibition of oxytocin-induced uterine contraction in pregnant rat at 60 mg/kg, po; type: functional
compound,measurement,setting,value
CC(C)C[C@@H]1C(=O)N[C@H](C2Cc3ccccc3C2)C(=O)N1[C@@H](C(=O)NC(C)C)c1ccc(N(C)C)cc1,Ki,Vasopressin V1a receptor [1],> 39800 nM
same,Ki,Vasopressin V1b receptor [2],> 50100 nM
same,Ki,Vasopressin V2 receptor [3],> 79400 nM
CC(C)C[C@@H]1C(=O)N[C@H](C2Cc3ccccc3C2)C(=O)N1[C@@H](C(=O)NC(C)C)c1ccc(F)cc1F,Ki,Vasopressin V1a receptor [1],6310 nM
same,Ki,Vasopressin V1b receptor [2],> 6310 nM
CC[C@H](C)[C@@H]1C(=O)N[C@H](C2Cc3ccccc3C2)C(=O)N1[C@@H](C(=O)N1CCOCC1)c1coc(C)n1 [RETOSIBAN],bioavailability,[4],100%
COc1cc(OC2CCN(Cc3ccc[n+]([O-])c3C)CC2)ccc1C(=O)N1CCC(N2C(=O)OCc3ccccc32)CC1,Ki,Oxytocin receptor [5],4.9 nM
same,Ki,Oxytocin receptor [6],14 nM
same,Ki,Vasopressin V1a receptor [7],3200 nM
same,Ki,Vasopressin V1a receptor [8],0.76 nM
same,Ki,Vasopressin V2 receptor [9],28000 nM
same,Ki,Vasopressin V2 receptor [10],9700 nM
same,AD50,Rattus norvegicus [11],0.78 mg/kg
same,AD50,Rattus norvegicus [12],2.5 mg/kg
same,bioavailability,[4],80%
same,Ratio Ki,Homo sapiens [13],650
same,Ratio Ki,Homo sapiens [14],> 5700
same,bioavailability,[15],90%
same,bioavailability,[16],36%
same,solubility,[17],10000 µg/mL
same,half-life,[18],2 h
CCOc1ccc(S(=O)(=O)N(CC(=O)N/N=C2\C(=O)Nc3ccccc32)c2ccc(C)cc2)cc1,Ratio Ki,Homo sapiens [13],100
same,ED50,Rattus norvegicus [19],10 mg/kg
CCOc1ccc(S(=O)(=O)N(CC(=O)NN=C2C(=O)Nc3ccccc32)c2ccc(C)cc2)cc1,solubility,[17],< 1 µg/mL
same,Ki,Vasopressin V1b receptor [20],2500 nM
same,Ki,Oxytocin receptor [21],25 nM
O=C(CN(c1ccccc1)S(=O)(=O)c1ccccc1)N/N=C1\C(=O)Nc2ccccc21,inhibition,Vasopressin V1a receptor [22],< 50%
O=C(Cn1cc(C(F)(F)F)ccc1=O)NCc1cc2cc(C(=O)N3CCC(N4C(=O)OCc5ccccc54)CC3)ccc2o1,Ki,Vasopressin V2 receptor [9],> 3000 nM
same,Ratio Ki,Homo sapiens [13],630
same,Ratio Ki,Homo sapiens [14],> 1500
same,bioavailability,[15],51%
CCN(Cc1cccnc1)C(=O)c1ccc(Cl)c([C@]2(C)C(=O)N(Cc3ccc(OC)cc3OC)c3ccc(Cl)cc32)c1,IC50,Oxytocin receptor [23],0.5 nM
same,Ki,Vasopressin V1a receptor [24],143 nM
same,Ki,Oxytocin receptor [25],1.6 nM
same,Ki,Vasopressin V2 receptor [26],> 1000 nM
same,Kb,Oxytocin receptor [27],3.39 nM
same,Ki,Vasopressin V1a receptor [28],99 nM
same,Ki,Vasopressin V2 receptor [29],> 1000 nM
COc1ccc(-n2c(C)nnc2-c2ccc(-c3ccccc3OC)cc2)cn1,Ki,Vasopressin V2 receptor [26],500 nM
same,Ki,Vasopressin V1a receptor [30],525 nM
same,Ki,Vasopressin V1b receptor [20],> 10000 nM
same,Ki,Oxytocin receptor [31],56 nM
COc1cc(OC2CCN(C(C)=O)CC2)ccc1C(=O)N1CCC(N2C(=O)OCc3ccccc32)CC1,AD50,Rattus norvegicus [11],0.55 mg/kg
same,AD50,Rattus norvegicus [12],2.5 mg/kg
same,bioavailability,[16],13%
CO/N=C1/C[C@@H](CO)N(C(=O)c2ccc(-c3ccccc3C)cc2)C1 [NOLASIBAN],bioavailability,[4],55%
same,Ki,Vasopressin V1a receptor [24],330 nM
same,Ki,Oxytocin receptor [25],210 nM
same,ED50,Rattus norvegicus [32],30 mg/kg
same,fraction unbound,[33],0.29
same,inhibition in vivo at 30 mg/kg,Rattus norvegicus [34],51%
same,inhibition in vivo at 60 mg/kg,Rattus norvegicus [35],40%
